Here are results for 13 compounds from US20090192147A1, “[a]-FUSED INDOLE COMPOUNDS, THEIR USE AS mTOR KINASE AND PI3 KINASE INHIBITORS, AND THEIR [sequence]” (Wyeth, priority 2008, published 2009).

Assay [1] has as its target PI3K-alpha (Homo sapiens, UniProt P42336). In words: Fluorescence polarization assay for PI3K. It is filed as biochemical. The conditions noted are these: 25 μM ATP, diC8-PI(4,5)P2 substrate; read-out: PI3 Kinase α IC50. The procedure:
(§1) Fluorescence Polarization Assay for PI3K
(§2) Reaction Buffer: 20 mM HEPES, pH 7.5, 2 mM MgCl2, 0.05% CHAPS; and 0.01% BME (added fresh) Stop/Detection Buffer: 100 mM HEPES, pH 7.5, 4 mM EDTA, 0.05% CHAPS; ATP 20 mM in water; PIP2 (diC8, Echelon, Salt Lake City Utah, cat# P-4508) 1 mM in water (MW=856.5); GST-GRP 1.75 mg/mL or 1.4 mg/mL in 10% glycerol; Red detector (TAMRA) 2.5 μM; Plate: Nunc 384 well black polypropylene fluorescence plate.
(§3) PI3-Kinase reactions were performed in […], pH 7, […], and 25 μM ATP, with diC8-PI(4,5)P2 (Echelon, Salt Lake City Utah) as substrate. Nunc 384 well black polypropylene fluorescent plates were used for PI3K assays. Reactions were quenched by the addition of EDTA to a final concentration of […]. Final reaction volumes were 10 μl. For evaluation of PI3K inhibitors, 5 ng of enzyme (PI3K-alpha, beta, gamma, or delta) and 2.5 μM of substrate was used per […] reaction volume, and inhibitor concentrations ranged from 100 pM to 20 μM; the final level of DMSO in reactions never exceeded 2%. Reactions were allowed to proceed for one hour at 25° C. After 1 hour, GST-tagged GRP1 (general receptor for phosphoinositides) PH domain fusion protein was added to a final concentration of 100 nM, and BODIPY-TMRI(1,3,4,5)P4 (Echelon) was also added to a final concentration of 5 nM. Final sample volumes were 25 μl with a final DMSO concentration of 0.8%. Assay Plates were read on PerkinElmer Envision plate readers with appropriate filters for Tamra [BODIPY-TMRI(1,3,4,5)P4]. Data obtained were used to calculate enzymatic activity and enzyme inhibition by inhibitor compounds.
A general note: Fluorescence polarisation rises when a labelled molecule tumbles more slowly, as on binding a larger partner.

Assay [2] deals with PI3K-gamma (Homo sapiens, UniProt P48736). Nature of the assay: Fluorescence polarization assay for PI3K. It is filed as biochemical. As to conditions: 25 μM ATP, diC8-PI(4,5)P2 substrate; read-out: PI3 Kinase γ IC50. The protocol:
as §1, §2, §3

In assay [3] the test system is PC3-MM2 cells. In words: In vitro cell culture growth assay (MTS). The conditions noted are these: Homo sapiens, PC3MM2, 72 h, growth inhibition, three days after drug treatment. It is filed as cell-based. The procedure:
(§4) Cell lines used were human adenocarcinoma (LoVo), pancreatic […], prostate (LNCap), breast (MDA468, MCF7), colon (HCT116), renal (HTB44 A498), and ovarian (OVCAR3) tumor cell lines. The tumor cells were plated in 96-well culture plates at approximately 3000 cells per well. One day following plating, various concentrations of PI3K inhibitors in DMSO were added to cells (final DMSO concentration in cell assays was 0.25%). Three days after drug treatment, viable cell densities were determined by cell mediated metabolic conversion of the dye MTS, a well-established indicator of cell proliferation in vitro. Cell growth assays were performed using kits purchased from Promega Corporation (Madison, Wis.), following the protocol provided by the vendor. Measuring absorbance at 490 nm generated the MTS assay results. Compound effect on cell proliferation was assessed relative to untreated control cell growth.

Assay [4] concerns the target T1, human TOR (FLAG-TOR) (Homo sapiens, UniProt P42345).
T1 construct: FLAG
In words: mTOR kinase assay, purified enzyme, DELFIA format. As to conditions: 100 μM ATP, His6-S6K substrate. It is filed as biochemical.

The test system of assay [5] is human tumor xenograft models. As to conditions: cited from earlier work.
The subject of assay [6] is OVCAR3 ovarian tumor cell line. In words: In vitro cell culture growth assay (MTS). It is filed as cell-based. As to conditions: Homo sapiens, OVCAR-3, 72 h, growth inhibition, three days after drug treatment. The protocol:
as §4

Assay [7] deals with acute lymphoblastic leukemia. The conditions noted are these: NOS/SCID mouse; cited from earlier work.
Assay [8] addresses mTOR enzymes (Homo sapiens, UniProt P42345). The conditions noted are these: read-out: mTOR enzymes IC50; literature value; cited from earlier work.

Each structure is given as a SMILES string. Where two headings read alike, the source gives them in different places.

Sequence of PI3K-gamma (P48736 whole entry): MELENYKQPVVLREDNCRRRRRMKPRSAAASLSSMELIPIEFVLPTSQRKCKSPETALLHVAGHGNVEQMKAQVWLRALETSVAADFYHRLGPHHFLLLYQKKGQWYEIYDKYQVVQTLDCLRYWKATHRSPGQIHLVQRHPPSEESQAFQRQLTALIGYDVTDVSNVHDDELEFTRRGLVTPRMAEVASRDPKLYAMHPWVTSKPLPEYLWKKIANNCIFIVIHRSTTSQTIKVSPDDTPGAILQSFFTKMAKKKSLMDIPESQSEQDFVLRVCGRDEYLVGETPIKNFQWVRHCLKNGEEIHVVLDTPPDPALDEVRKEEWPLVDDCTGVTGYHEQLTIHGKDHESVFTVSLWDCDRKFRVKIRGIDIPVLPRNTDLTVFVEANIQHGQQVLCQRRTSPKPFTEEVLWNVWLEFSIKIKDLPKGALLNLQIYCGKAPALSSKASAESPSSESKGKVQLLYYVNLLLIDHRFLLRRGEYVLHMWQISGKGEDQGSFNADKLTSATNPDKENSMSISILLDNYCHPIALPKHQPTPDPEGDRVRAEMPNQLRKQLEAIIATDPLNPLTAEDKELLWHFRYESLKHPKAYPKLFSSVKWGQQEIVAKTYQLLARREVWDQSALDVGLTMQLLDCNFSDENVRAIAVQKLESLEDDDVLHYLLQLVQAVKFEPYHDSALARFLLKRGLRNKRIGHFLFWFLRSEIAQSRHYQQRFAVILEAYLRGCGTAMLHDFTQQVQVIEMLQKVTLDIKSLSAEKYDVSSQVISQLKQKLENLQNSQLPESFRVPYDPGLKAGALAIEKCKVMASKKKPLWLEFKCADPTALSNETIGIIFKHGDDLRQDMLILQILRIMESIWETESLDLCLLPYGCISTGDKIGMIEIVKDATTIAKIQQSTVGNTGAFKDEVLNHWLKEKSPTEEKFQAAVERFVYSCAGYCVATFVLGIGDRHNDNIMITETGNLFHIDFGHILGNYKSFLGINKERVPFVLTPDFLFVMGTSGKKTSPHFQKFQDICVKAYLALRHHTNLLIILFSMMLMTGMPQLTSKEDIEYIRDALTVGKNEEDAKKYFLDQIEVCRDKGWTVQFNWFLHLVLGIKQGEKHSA
Sequence of PI3K-alpha (P42336 whole entry, species assumed): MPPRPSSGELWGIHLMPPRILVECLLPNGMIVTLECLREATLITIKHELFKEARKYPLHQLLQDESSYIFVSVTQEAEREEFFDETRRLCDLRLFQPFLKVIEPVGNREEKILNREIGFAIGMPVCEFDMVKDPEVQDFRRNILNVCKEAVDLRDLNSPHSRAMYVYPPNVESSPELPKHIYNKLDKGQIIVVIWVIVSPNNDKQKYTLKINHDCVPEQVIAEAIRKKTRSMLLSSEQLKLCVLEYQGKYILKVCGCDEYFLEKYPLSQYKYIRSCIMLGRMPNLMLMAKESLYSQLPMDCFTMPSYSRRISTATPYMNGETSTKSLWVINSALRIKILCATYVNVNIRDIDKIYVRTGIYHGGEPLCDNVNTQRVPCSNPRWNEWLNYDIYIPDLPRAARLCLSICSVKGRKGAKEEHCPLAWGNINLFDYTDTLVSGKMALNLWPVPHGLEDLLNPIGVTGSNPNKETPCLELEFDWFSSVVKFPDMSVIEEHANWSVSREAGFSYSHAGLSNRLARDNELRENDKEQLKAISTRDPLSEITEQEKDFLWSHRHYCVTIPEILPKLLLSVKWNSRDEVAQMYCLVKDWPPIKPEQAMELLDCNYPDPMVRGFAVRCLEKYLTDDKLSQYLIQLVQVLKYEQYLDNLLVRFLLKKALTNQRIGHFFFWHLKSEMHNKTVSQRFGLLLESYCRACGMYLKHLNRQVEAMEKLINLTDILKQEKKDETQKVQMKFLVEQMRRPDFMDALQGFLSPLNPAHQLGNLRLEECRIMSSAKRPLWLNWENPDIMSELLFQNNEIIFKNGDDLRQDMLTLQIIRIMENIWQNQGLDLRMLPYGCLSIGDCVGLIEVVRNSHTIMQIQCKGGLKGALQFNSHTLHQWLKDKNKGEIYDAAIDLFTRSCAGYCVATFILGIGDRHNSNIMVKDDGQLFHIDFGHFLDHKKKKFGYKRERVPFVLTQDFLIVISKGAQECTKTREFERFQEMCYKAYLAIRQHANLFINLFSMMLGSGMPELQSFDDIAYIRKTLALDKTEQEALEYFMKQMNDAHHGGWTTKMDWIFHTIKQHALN
Sequence of PI3K-alpha (P27986 whole entry partner, species assumed): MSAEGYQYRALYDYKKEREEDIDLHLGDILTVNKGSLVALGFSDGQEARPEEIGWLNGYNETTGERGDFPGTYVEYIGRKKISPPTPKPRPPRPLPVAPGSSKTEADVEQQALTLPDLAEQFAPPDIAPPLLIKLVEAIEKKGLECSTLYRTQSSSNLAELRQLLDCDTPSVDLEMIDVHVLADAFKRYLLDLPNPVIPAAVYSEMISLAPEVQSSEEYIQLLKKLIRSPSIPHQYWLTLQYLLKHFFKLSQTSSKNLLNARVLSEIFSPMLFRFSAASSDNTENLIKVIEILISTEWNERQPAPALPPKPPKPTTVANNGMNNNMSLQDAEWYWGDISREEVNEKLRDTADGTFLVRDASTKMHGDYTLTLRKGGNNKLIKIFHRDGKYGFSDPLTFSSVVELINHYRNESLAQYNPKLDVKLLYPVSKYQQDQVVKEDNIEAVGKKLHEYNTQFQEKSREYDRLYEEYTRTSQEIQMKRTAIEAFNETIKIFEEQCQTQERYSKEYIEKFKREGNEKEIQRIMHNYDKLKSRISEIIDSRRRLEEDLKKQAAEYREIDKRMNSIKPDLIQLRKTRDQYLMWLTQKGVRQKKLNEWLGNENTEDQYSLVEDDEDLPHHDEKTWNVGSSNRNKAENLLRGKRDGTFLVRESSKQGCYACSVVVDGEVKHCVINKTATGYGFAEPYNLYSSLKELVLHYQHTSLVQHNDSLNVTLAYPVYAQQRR

Broadly, the IC50 is the concentration that inhibits the measured activity by half. As for `COc1ccc2c(c1)c(/C=C1\Oc3cc(O)cc(O)c3C1=O)c1n2CCOC1=O` [Example I, 10-[(Z)-(4,6-dihydroxy-3-oxo-1-benzofuran-2(3H)-ylidene)methyl]-8-methoxy-3,4-dihydro-1H-[1,4]oxazino[4,3-a]indol-1-one], the IC50 in assay [1] worked out at 1.1 nM; in assay [2], 9 nM; in assay [3], 5630 nM; in assay [4], 24 nM.

In the case of `Oc1cccc(-c2nc(N3CCOCC3)c3oc4ncccc4c3n2)c1` [Example P1103, 3-(4-(4-morpholinyl)pyrido[3′,2′:4,5]furo[3,2-d]pyrimidin-2-yl)phenol], the “activity in human tumor xenograft models” value in assay [5] (I.P. dosing in mice, U87MG, PC3, MDA-MB-468, MDA-MB-435, HCT 116, SKOV3, IGROV-1) was “demonstrated activity”.

Turning to `COc1ccc2c(c1)c(/C=C1\Oc3cc(O)ccc3C1=O)c1n2CCOC1=O` [J, 10-[(Z)-(6-hydroxy-3-oxo-1-benzofuran-2(3H)-ylidene)methyl]-8-methoxy-3,4-dihydro-1H-[1,4]oxazino[4,3-a]indol-1-one], the IC50 was 21.5 nM in assay [1]; 76.5 nM in assay [2]; 5280 nM in assay [6]; above 10000 nM in assay [3]; 114 nM in assay [4].

In the case of `COc1ccc2c(c1)c(/C=C1\Oc3cc(O)cc(O)c3C1=O)c1n2CCNC1` [K, (2Z)-4,6-dihydroxy-2-[(8-methoxy-1,2,3,4-tetrahydropyrazino[1,2-a]indol-10-yl)methylene]-1-benzofuran-3(2H)-one], the IC50 was 5.5 nM in assay [1]; 116 nM in assay [2]; 1620 nM in assay [6]; 2190 nM in assay [3]; 9 nM in assay [4].

`COc1ccc2c(c1)c(/C=C1\Oc3cc(O)ccc3C1=O)c1n2CCNC1` [L, (2Z)-6-hydroxy-2-[(8-methoxy-1,2,3,4-tetrahydropyrazino[1,2-a]indol-10-yl)methylene]-1-benzofuran-3(2H)-one]: the IC50 in assay [1] amounted to 16.5 nM; in assay [2], 116 nM; in assay [6] it was 780 nM; in assay [3] it was 1510 nM; in assay [4], 320 nM.

As to `COc1ccc2c(c1)c(/C=C1\Oc3cc(O)cc(O)c3C1=O)c1n2CCOC1` [M, (2Z)-4,6-dihydroxy-2-[(8-methoxy-3,4-dihydro-1H-[1,4]oxazino[4,3-a]indol-10-yl)methylene]-1-benzofuran-3(2H)-one], the IC50 in assay [1] was 4.5 nM; in assay [2] it was 57 nM; in assay [6], 1000 nM; in assay [3], 1910 nM; in assay [4], below 32 nM.

On to `COc1ccc2c(c1)c(/C=C1\Oc3cc(O)cc(O)c3C1=O)c1n2CCNC1=O` [N, 10-[(Z)-(4,6-dihydroxy-3-oxo-1-benzofuran-2(3H)-ylidene)methyl]-8-methoxy-3,4-dihydropyrazino[1,2-a]indol-1(2H)-one], for which the IC50 in assay [1] was 2.5 nM; in assay [2], 24.5 nM; in assay [6], 4950 nM; in assay [3], above 10000 nM; in assay [4], below 32 nM.

Regarding `Cn1c(=O)n(-c2ccc(C(C)(C)C#N)cc2)c2c3cc(-c4cnc5ccccc5c4)ccc3ncc21` [NVP-BEZ-235, 2-methyl-2-(4-(3-methyl-2-oxo-8-(quinolin-3-yl)-2,3-dihydro-1H-imidazo[4,5-c]quinolin-1-yl)phenyl)propanenitrile], the “activity in human tumor xenograft models” value in assay [5] (prostrate (PC-3) and glioblastoma (U-87)) is recorded as “demonstrated activity”.

For the compound `COc1ccc2c(c1)c(/C=C1\Oc3cc(O)ccc3C1=O)c1n2CCC1` [O, (2Z)-6-hydroxy-2-[(7-methoxy-2,3-dihydro-1H-pyrrolo[1,2-a]indol-9-yl)methylene]-1-benzofuran-3(2H)-one], the IC50 in assay [1] was determined as 14 nM; in assay [2], 76 nM; in assay [6] it was 3720 nM; in assay [3] it was 3400 nM; in assay [4] it was 66 nM.

Take `COc1ccc2c(c1)c(/C=C1\Oc3cc(O)cc(O)c3C1=O)c1n2CCN(C)C1` [P, (2Z)-4,6-dihydroxy-2-[(8-methoxy-2-methyl-1,2,3,4-tetrahydropyrazino[1,2-a]indol-10-yl)methylene]-1-benzofuran-3(2H)-one]: the IC50 in assay [1] was 6 nM; in assay [2], 30.5 nM; in assay [6], 1670 nM; in assay [3], 1610 nM; in assay [4], 9 nM.

`COc1ccc2c(c1)c(/C=C1\Oc3cc(O)cc(O)c3C1=O)c1n2CCN(C)C1=O` [Q, 10-[(Z)-(4,6-dihydroxy-3-oxo-1-benzofuran-2(3H)-ylidene)methyl]-8-methoxy-2-methyl-3,4-dihydropyrazino[1,2-a]indol-1(2H)-one]: the IC50 worked out at 3 nM in assay [1]; 27 nM in assay [2]; 3600 nM in assay [6]; 5050 nM in assay [3]; 4 nM in assay [4].

As to `CO[C@H]1C[C@@H]2CC[C@@H](C)[C@@](O)(O2)C(=O)C(=O)N2CCCC[C@H]2C(=O)O[C@H]([C@H](C)C[C@@H]2CC[C@@H](OC(=O)C(C)(CO)CO)[C@H](OC)C2)CC(=O)[C@H](C)/C=C(\C)[C@@H](O)[C@@H](OC)C(=O)[C@H](C)C[C@H](C)/C=C/C=C/C=C/1C` [Torisel], the “activity in xenograft mouse model of acute lymphoblastic leukemia” value in assay [7] is recorded as “active”.

`FC(F)c1nc2ccccc2n1-c1nc(N2CCOCC2)nc(N2CCOCC2)n1` [ZSTK474, 2-(2-difluoromethylbenzoimidazol-1-yl)-4,6-dimorpholino-1,3,5-triazine]: the half-inhibitory concentration (IC50) in assay [8] was above 10000 nM. Also, in assay [5] (chronic oral administration, 400 mg/kg, A549, PC-3, WiDr), the “tumor growth in mouse human xenograft cancer models” value is “completely inhibited growth”.
